US10501493B2, “Broad spectrum antibiotics” (priority 2011, dated 2019)
Like-named read-outs stand apart in the source and are kept apart here.

Experiments:
[1] = system: S. pyogenes M15448; assay: In vitro antimicrobial activity, MIC by broth micro-dilution; assay type: cell-based; conditions: Streptococcus pyogenes; S. pyogenes M15448; read-out: MIC
Summary of the method: (§1)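 CLSI broth micro-dilution MIC against two-fold serial compound dilutions. Inoculum came from colonies grown 24 h at 35° C. or 28° C., suspended in cation-adjusted Mueller Hinton broth at 1*10^7 CFU/ml, of which 5 μl was added per 100 μl well. LepB(P84L) is a proline-mutant SPase strain with heightened arylomycin susceptibility.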

[2] = system: R. equi DSM 6939; assay: as above; assay type: cell-based; conditions: Rhodococcus (subgen. Prescottella) equi, DSM6939, read-out: MIC
Summary of the method: as §1

[3] = system: S. aureus NCTC-8325 SpsB(P295); assay: as above; assay type: cell-based; conditions: for MIC: Staphylococcus aureus
[4] = system: S. epidermidis RP62A SpsIB(S29P); assay: as above; assay type: cell-based; conditions: Staphylococcus epidermidis
[5] = system: S. epidermidis RP62A SpsIB(S31P); assay: as above; assay type: cell-based; conditions: Staphylococcus epidermidis
[6] = system: S. pyogenes ATCC 19615; assay: as above; assay type: cell-based; conditions: Streptococcus pyogenes, ATCC19615, read-out: MIC
[7] = system: S. epidermidis ATCC 12228; assay: as above; assay type: cell-based; conditions: Staphylococcus epidermidis, ATCC12228, read-out: MIC
[8] = system: C. glutamicum DSM 44475; assay: as above; assay type: cell-based; conditions: Corynebacterium glutamicum, DSM44475, read-out: MIC
[9] = system: P. aeruginosa PA01 LepB(P84L); assay: as above; assay type: cell-based; conditions: Pseudomonas aeruginosa
Summary of the method: as §1

[10] = system: S. agalactiae COH-1; assay: as above; assay type: cell-based; conditions: Streptococcus agalactiae, COH1; S. agalactiae COH-1; read-out: MIC
[11] = system: S. aureus ATCC 29213; assay: as above; assay type: cell-based; conditions: Staphylococcus aureus, ATCC29213, read-out: MIC
[12] = system: S. pneumoniae R800; assay: as above; assay type: cell-based; conditions: Streptococcus pneumoniae, read-out: MIC
Summary of the method: as §1

[13] = system: S. pneumoniae D39; assay: as above; assay type: cell-based; conditions: for MIC: Streptococcus pneumoniae
[14] = system: E. coli MIG1655 LepB(P84L); assay: as above; assay type: cell-based; conditions: Escherichia coli
Summary of the method: as §1

[15] = system: S. epidermidis RP62A; assay: as above; assay type: cell-based; conditions: for MIC: Staphylococcus epidermidis
[16] = system: S. agalactiae ATCC 13813; assay: as above; assay type: cell-based; conditions: Streptococcus agalactiae, ATCC13813, read-out: MIC
[17] = system: E. coli ATCC 25922; assay: as above; assay type: cell-based
[18] = target: T1, E. coli SPase (Escherichia coli, UniProt P00803); assay: Enzymatic fluorogenic substrate cleavage assay for IC50; assay type: biochemical
T1 construct: Full length His-tagged E. coli SPase proteins were expressed in E. coli BL21(DE3); His-tag; made in house; host or cells: E. coli BL21(DE3)
T1 sequence (P00803 whole entry): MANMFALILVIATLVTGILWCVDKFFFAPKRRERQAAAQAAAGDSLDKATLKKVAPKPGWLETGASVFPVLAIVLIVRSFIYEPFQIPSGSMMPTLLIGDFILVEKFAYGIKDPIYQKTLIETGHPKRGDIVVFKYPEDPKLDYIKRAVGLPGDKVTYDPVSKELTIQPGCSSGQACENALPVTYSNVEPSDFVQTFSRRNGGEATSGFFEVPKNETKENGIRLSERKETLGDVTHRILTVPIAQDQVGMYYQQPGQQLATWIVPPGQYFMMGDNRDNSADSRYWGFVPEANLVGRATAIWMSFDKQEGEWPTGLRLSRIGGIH
Summary of the method: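 Full-length His-tagged E. coli SPase (LepB, 2.5 nM) in 50 mM Tris-HCl pH 8.0, 100 mM NaCl, 10% glycerol, 1 mM EDTA, 1% NP-40 with two-fold compound dilutions; reaction started with fluorogenic abz/nitrotyrosine FRET peptide (added at 100 μM). Fluorescence (ex 314/em 416 nm) monitored 30 min at room temperature; IC50 from initial rates by nonlinear sigmoidal fit.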

[19] = target: T2, S. aureus SPase (Staphylococcus aureus, UniProt P0A070); assay: as above; assay type: biochemical
T2 construct: Full length His-tagged S. aureus SPase protein was expressed similarly; His-tag; made in house; host or cells: E. coli BL21(DE3)
T2 sequence (P0A070 whole entry): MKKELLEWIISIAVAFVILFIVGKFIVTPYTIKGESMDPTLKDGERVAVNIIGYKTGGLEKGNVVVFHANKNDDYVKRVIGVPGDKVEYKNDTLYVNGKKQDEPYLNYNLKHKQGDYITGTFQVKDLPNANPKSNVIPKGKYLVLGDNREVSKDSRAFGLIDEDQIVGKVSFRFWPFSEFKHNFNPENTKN

[20] = system: S. aurues NCTC-8325; assay: In vitro antimicrobial activity, MIC by broth micro-dilution; assay type: cell-based, S. aureus
[21] = system: E. col ATCC 25922 LepB(P84L); assay: as above; assay type: cell-based, E. coli
Summary of the method: as §1

[22] = S. pneumoniae D39, read-out: MIC
[23] = S. epidermidis RP62A, read-out: MIC

CCCCCCCCCCCCCCCC(=O)N(C)[C@H](CO)C(=O)N[C@H](C)C(=O)NCC(=O)N(C)[C@@H]1C(=O)N[C@@H](C)C(=O)N[C@H](C(=O)N[C@@H](C)C(=O)N2CCC[C@H]2C(=O)O)Cc2ccc(O)c(c2)-c2cc1ccc2O [Compound 25]
16 µg/mL: MIC [1] | MIC [6] | MIC [7]
8 µg/mL: MIC [12] | MIC [13, 22] | MIC [14] | MIC [16]
64 µg/mL: MIC [4] | MIC [8] | MIC [11]
4 µg/mL: MIC [15, 23]
> 64 µg/mL: MIC [2] | MIC ([3]; NCTC8325) | MIC [5] | MIC [9] | MIC [10]

CCCCCCCCCCCCCCCC(=O)N(C)[C@H](CO)C(=O)N[C@H](C)C(=O)NCC(=O)N(C)[C@@H]1C(=O)N[C@@H](C)C(=O)N[C@H](C(=O)NCC(N)=O)Cc2ccc(O)c(c2)-c2cc1ccc2O [Compound 26]
8 µg/mL: MIC [6] | MIC [13, 22] | MIC [14]
4 µg/mL: MIC [15, 23]
16 µg/mL: MIC [12] | MIC [16]
32 µg/mL: MIC [7] | MIC [8]
64 µg/mL: MIC [2]
> 64 µg/mL: MIC [1] | MIC ([3]; NCTC8325) | MIC [4] | MIC [5] | MIC [9] | MIC [10] | MIC [11]

CCCCCCCCCCCCCCCC(=O)N(C)[C@H](CO)C(=O)N[C@H](C)C(=O)NCC(=O)N(C)[C@@H]1C(=O)N[C@@H](C)C(=O)N[C@H](C(=O)NCC(=O)N2CCCC2C(N)=O)Cc2ccc(O)c(c2)-c2cc1ccc2O (stereo partly shown) [Compound 27]
16 µg/mL: MIC [13, 22]
32 µg/mL: MIC [1] | MIC [6] | MIC [7] | MIC [8] | MIC [10] | MIC [12] | MIC [16]
8 µg/mL: MIC [14] | MIC [15, 23]
> 64 µg/mL: MIC [2] | MIC ([3]; NCTC8325) | MIC [4] | MIC [5] | MIC [9] | MIC [11]

CCCCCCCCCCCCCCCC(=O)N(C)[C@H](CO)C(=O)N[C@H](C)C(=O)NCC(=O)N(C)[C@@H]1C(=O)N[C@@H](C)C(=O)N[C@H](C(=O)N[C@@H](C)C(=O)C(=O)N(C)C)Cc2ccc(O)c(c2)-c2cc1ccc2O [Compound 28]
32 µg/mL: MIC [1] | MIC ([3]; NCTC8325) | MIC [8] | MIC [10]
4 µg/mL: MIC [15, 23]
> 64 µg/mL: MIC [2] | MIC [4] | MIC [5] | MIC [9] | MIC [11]
16 µg/mL: MIC [6] | MIC [7] | MIC [12] | MIC [16]
8 µg/mL: MIC [13, 22] | MIC [14]

CCCCCCCCCCCCCCCC(=O)N(C)[C@H](CO)C(=O)N[C@H](C)C(=O)NCC(=O)N(C)[C@@H]1C(=O)N[C@@H](C)C(=O)N[C@H](C(=O)N[C@H](C)C(=O)C(=O)N(C)C)Cc2ccc(O)c(c2)-c2cc1ccc2O [Compound 29]
32 µg/mL: MIC [7] | MIC [8] | MIC [12] | MIC [16]
8 µg/mL: MIC [15, 23]
64 µg/mL: MIC [1] | MIC [10]
> 64 µg/mL: MIC [2] | MIC ([3]; NCTC8325) | MIC [4] | MIC [5] | MIC [9] | MIC [11]
16 µg/mL: MIC [6] | MIC [13, 22] | MIC [14]

CCCCCCCCCCCCCCCC(=O)N(C)[C@H](CO)C(=O)N[C@H](C)C(=O)NCC(=O)N(C)[C@@H]1C(=O)N[C@@H](C)C(=O)N[C@H](C(=O)NCC(=O)N2CCC[C@H]2C(=O)O)Cc2ccc(O)c(c2)-c2cc1ccc2O [Compound 31]
> 64 µg/mL: MIC [2] | MIC ([3]; NCTC8325) | MIC [4] | MIC [5] | MIC [8] | MIC [9] | MIC [10] | MIC [11]
4 µg/mL: MIC [13, 22]
8 µg/mL: MIC [6] | MIC [12] | MIC [15, 23] | MIC [16]
32 µg/mL: MIC [7]
16 µg/mL: MIC [1] | MIC [14]

CCCCCCCCCCCCCCCC(=O)N(C)[C@H](CO)C(=O)N[C@H](C)C(=O)N[C@@H](C)C(=O)N(C)[C@@H]1C(=O)N[C@@H](C)C(=O)N[C@H](C(=O)O)Cc2ccc(O)c(c2)-c2cc1ccc2O [Compound 91]
< 8 µg/mL: MIC ([13]; D39, read-out: MIC class, S. pneumoniae D39) | MIC ([15]; RP62A, read-out: MIC class, S. epidermidis RP62A)
> 64 µg/mL: MIC ([3]; NCTC8325, read-out: MIC class, S. aureus NCTC-8325 SpsB(P295)) | MIC ([17]; Escherichia coli, ATCC25922, read-out: MIC class, E. coli ATCC 25922) | MIC ([20]; Staphylococcus aureus, NCTC8325, read-out: MIC class, S. aurues NCTC-8325) | MIC ([21]; Escherichia coli, ATCC25922, read-out: MIC class, E. col ATCC 25922 LepB(P84L))
< 1 µM: IC50 [18] | IC50 [19]

CCCCCCCCCCCCCCCC(=O)N(C)[C@H](CO)C(=O)N[C@H](C)C(=O)NCC(=O)N(C)[C@@H]1C(=O)N[C@@H](C)C(=O)N[C@H](C(=O)NCC=O)CCCc2ccc(O)c(c2)-c2cc1ccc2O [Compound 94]
< 1 µM: IC50 ([18]; fluorogenic peptide cleavage, read-out: IC50 class E. coli SPase) | IC50 ([19]; fluorogenic peptide cleavage, read-out: IC50 class S. aureus SPase)
a (MIC >64 μg/ml): MIC class, S. aureus NCTC-8325 SpsB(P295) ([3]; S. aureus NCTC-8325 SpsB(P295)) | MIC class, E. coli ATCC 25922 ([17]; E. coli ATCC 25922) | MIC class, S. aurues NCTC-8325 ([20]; S. aurues NCTC-8325) | MIC class, E. col ATCC 25922 LepB(P84L) ([21]; E. col ATCC 25922 LepB(P84L))
b (MIC 16-64 μg/ml): MIC class, S. pneumoniae D39 ([13]; S. pneumoniae D39)
c (MIC ≤8 μg/ml): MIC class, S. epidermidis RP62A ([15]; S. epidermidis RP62A)
